Reference: US20050288359A1, “Agents and methods for the treatment of disorders associated with oxidative stress” (Monash University, priority 2002, published 2005)
Like-named read-outs stand apart in the source and are kept apart here.

Tests used:
[1] = tested on: neonatal mouse fibroblasts; test: Oxidant stress-induced cell death of fibroblasts (LDH release); assay type: cell-based
Protocol: FIG. 2 is a plot of the oxidant stress-induced cell death of neonatal mouse fibroblasts exposed to paraquat. Cells (5×10^3 per well) were treated overnight with freshly prepared paraquat or peroxynitrite. Culture medium from wells was assayed for lactate dehydrogenase (LDH) release as a marker of cytotoxicity. […] Values represent means±SEMs of triplicate wells, *P<0.05 difference from untreated cells. The x-axis represents concentration of Paraquat and Peroxynitrite in μM.
(§1) We developed two cell culture systems that can be used to screen drugs that prevent cell death induced by oxidant stress (FIG. 3, Model A) and excitotoxicity (FIG. 4, Model B). In model A, we utilize cultured fibroblasts that are exposed to paraquat that induces significant death at 10 μM (see FIG. 3). In model B we utilize the NSC-34 motor neuron cell line that can be induced to degenerate via the glutamate excitotixic pathway using the specific agonist fluorowillardine or FW (see FIG. 4).

[2] = tested on: NSC-34D motor neuron cell line; test: Excitotoxic cell death of motor neuron cell line (MTT reduction); assay type: cell-based; conditions: exposed for 72 hours
Protocol: FIG. 3 is a plot showing the effect of (S)-5-fluorowillardiine (“(S)-5-FW”) on survival (MTT reduction) of NSC-34D motor neuron cell line. These cells were cultured at 1×10^4 cells/well for 48 hours in DMEM/F-12 with 1% (v/v) FCS and then exposed to various concentrations of (S)-5-FW for 72 hours. MTT solution (0.5 mg/ml) was added to cultures for 2 hours, cells were solubilised and MTT reduction quantified as a percentage of […]. Statistically significant differences from control (zero (S)-5-FW) were defined using one-way ANOVA (*P<0.05, ***P<0.001).
as §1

[3] = In vitro antioxidant assay: oxidation of linoleic acid to conjugated diene hydroperoxide, free radical initiator AAPH, absorbance at 234 nm; assay type: biochemical
Description: Lipid oxidation can usually be prevented by the addition free radical scavengers (FRS), more commonly known as antioxidants. Their role is to turn reactive and harmful molecules such as hydroxy, nitroxy and superoxide radicals into innocuous molecules that can be passed or converted by biological processes. One of the main pathways that lead to apoptosis in cells is oxidative stress. This event is a product of the action of these harmful radicals on the cell walls and membranes, leading to their breakdown. In terms of the antioxidant evaluation (Scheme 1), […] was utilised as a free radical initiator […], and the efficiency was calculated based on the formation of a conjugated diene hydroperoxide generated through the oxidation of linoleic acid in the presence and absence of a free radical scavenger. The conjugated diene hydroperoxide mimics the products of cellular oxidative stress imposed on the cell wall. The antioxidant can act at any stage of the reaction to stop or slow down the formation of the conjugated diene by reacting with the appropriate radicals (Scheme 1).
A convenient test to determine the efficiency of antioxidants in aqueous systems was setup using 2,2′-azobis(2-amidinopropane).2HCl ([…]) as a free radical initiator (Scheme 1). The production of conjugated diene hydroperoxide (LOOH) generated through the oxidation of linoleic acid in an aqueous system at 37° C. is monitored at 234 nm for 15 minutes using a Cary 100 UV-Vis spectrophotometer.
The efficiency is determined according to a standard, that is the generation of free radicals in the absence of an antioxidant. Efficiency is then calculated using the following equation: Efficiency (%)=1−[K2/K1]×100 Where: • K1=rate of oxidation of standard (no antioxidant)=[difference in absorbance]/[time (sec)] • K2=rate of oxidation with antioxidant=[difference in absorbance]/[time (sec)]
Prior to testing the efficiency of the compounds of the present invention, a number of well known antioxidants including vitamin E and ascorbic acid were tested. Each of the tests for vitamin E and ascorbic acid gave similar results to those presented in the literature. A number of other variables were tested including the amounts of antioxidant, substrate (linoleic acid) and initiator (AAPH). The optimal volumes are shown below: • 2.78 ml 0.05M phosphate buffer pH 7.4 • 30 ul of linoleic acid dispersion stock • 10 ul of 0.01M antioxidant stock
150 ul of 40 mM […] stock
When testing the efficiency of compounds of the present invention in the presence and absence of Ca^2+, HEPES buffered saline was used instead of the standard phosphate buffer and CaCl2 was used as a source of calcium ions.

[4] = 0.05M phosphate buffer pH 7.4, 37° C., 15 minutes, antioxidant stock 0.01 M, final concentration 33.3 μM
[5] = HBS with calcium (67%), CaCl2 as calcium source, solvent methanol or DMSO (33%)
[6] = HBS without calcium (67%), solvent methanol or DMSO (33%)

## C[n+]1ccc(-c2cc[n+](C)cc2)cc1 [paraquat]
[1]; 5×10^3 cells per well, treated overnight, high doses
  Cell death (LDH release as marker of cytotoxicity): induced significant cell death
[1]; model A, oxidant stress
  Concentration that induces significant death of cultured fibroblasts: 10 µM

## N[C@@H](Cn1cc(F)c(=O)[nH]c1=O)C(=O)O [(S)-5-FW, (S)-5-fluorowillardiine]
[2]
  Concentration of maximal cell death effect: 1000 µM
[2]; various concentrations
  Effect on survival (MTT reduction): significant cell death in concentration dependent manner

## COc1ccccc1N(CC(=O)O)CC(=O)O [(6), N,N-bis(acetic acid)o-anisidine]
[3]; [4]
  Efficiency: 43%
[3]; [5]
  Efficiency: 35%
[3]; [6]
  Efficiency: 46%

## Vitamin E
[3]; [4]
  Efficiency: 93%
[3]; [5]
  Efficiency: 94%
[3]; [6]
  Efficiency: 90%

## CCOC(=O)CN(CC(=O)OCC)c1ccccc1OC [(5), N,N-bis(ethoxycarbonylmethyl)o-anisidine]
[3]; [4]
  Efficiency: 47%

## O=C(O)CN(CC(=O)O)c1ccccc1OCCOc1ccccc1N(CC(=O)O)CC(=O)O [compound (4), bis(o-aminophenoxy)ethane-N,N,N′,N′-tetraacetic acid]
[3]; [4]
  Efficiency: 83%
[3]; [5]
  Efficiency: 93%
[3]; [6]
  Efficiency: 93%

## O=C1O[C@H]([C@@H](O)CO)C(O)=C1O [Ascorbic Acid]
[3]; [4]
  Efficiency: 74%

## Bis[2-(bis-ethoxycarbonylmethyl)aminophenoxy]ethane [compound (3)]
[3]; [4]
  Efficiency: 20%

## O=NOO [peroxynitrite]
[1]
  Cell death (LDH release as marker of cytotoxicity): not peroxynitrite induced significant cell death
